{
  "source": "patent US9706770B2",
  "about": "“Rodenticide bait comprising difenacoum and method for controlling target rodent pests” (priority 2014, dated 2017)",
  "key": {"[1]": {"test": "Hepatic persistence of trans and cis stereoisomers after a single per os dose of a mixture (Table 1)", "type": "in vivo, rat", "details": "male Sprague Dawley rats, mixture 56% trans/44% cis, 5.2 mg difenacoum/kg per os on D0, mean of 4 rats", "experimental": "On D0 per os tube feeding is performed on male laboratory rats (Sprague Dawley rats, Charles River, Saint germain sur 1′ Arbresle, France) aged 8 weeks and with a body mass of the order of 200 g with a mixture comprising 56% of trans-difenacoum and 44% of cis-difenacoum in an amount of 5.2 mg of difenacoum per kilogram of rat. The rats are kept alive by daily subcutaneous injection of a solution of vitamin K in an amount of 1 U per rat. On D+1, D+3, D+5, D+7, D+10, D+14 and D+21, 4 rats are anaesthetised with isoflurane and then sacrificed, and the livers are removed and frozen until analysed."}, "[2]": {"type": "in vivo, rat", "details": "for concentration in the liver: D+1", "experimental": "(§1) On D0 a control composition of the prior art comprising a molar proportion of cis-difenacoum of 56% and a molar proportion of trans-difenacoum of 44% is administered per os to seven groups of four male laboratory rats (Sprague Dawley rats, Charles River, Saint germain sur l'Arbresle, France) weighing between 180 and 220 g in an amount of 5.2 mg of difenacoum per kilogram of rat. On D+1, D+3, D+5, D+7, D+10, D+14 and D+21, 4 rats are sacrificed. The livers are removed and weighed. A liquid/solid extraction of difenacoum with acetone is performed. The difenacoum is analysed by HPLC on a C8 (250 mm×10 mm) column kept at 30° C. with a mobile phase formed from 80% acetonitrile and 20% acid water. The flow rate of the mobile phase is kept at 2 ml/min and the trans-difenacoum and cis-difenacoum are detected by spectrophotometric analysis at the wavelength of 258 nm. The trans-difenacoum and cis-difenacoum are quantified by calibration with known amounts of trans-difenacoum and cis-difenacoum. The results are given in FIG. 3, in which the hepatic persistence of trans-difenacoum is represented by solid squares (▪) and the hepatic persistence of cis-difenacoum is represented by open diamonds (⋄).\nOn D+1 the concentration of cis-difenacoum in the liver of the female rats (9.6 μg/g of liver) is essentially equivalent to the concentration of cis-difenacoum in the liver of the male rats (7.3 μg/g of liver). The concentration on D+1 of trans-difenacoum in the liver of the female rats (3.3 μg/g of liver) is greater than the concentration of trans-difenacoum in the liver of the male rats (0.9 μg/g of liver). […] For the same dosage, the hepatic concentrations of trans-difenacoum are thus higher in the female at least up to three days after treatment (D0)."}, "[3]": {"test": "in vivo", "parameters": "species or system rat", "details": "male rats, control composition 56% cis/44% trans, 5.2 mg difenacoum/kg per os on D0; for hepatic concentration: from D+3", "experimental": "as §1"}, "[4]": {"test_system": "Sprague Dawley male rats", "test": "Coagulation time (Quick time) after a single per os dose of purified cis- or trans-difenacoum", "type": "in vivo, rat", "experimental": "The comparative study of the rodenticidal efficacy of purified trans-difenacoum and purified cis-difenacoum is carried out by administration by means of a stomach tube (per os): • of a solution of cis-difenacoum to a first group of four “Sprague Dawley” male rats weighing between 180 and 220 g, and • of a solution of trans-difenacoum to a second group of four “Sprague Dawley” male rats weighing between 180 and 220 g.\nThese solutions of cis-difenacoum and trans-difenacoum are obtained by weighing cis-difenacoum or trans-difenacoum and dilution in a mixture formed from 95% vegetable oil and 5% DMSO.\nThe doses of cis-difenacoum and trans-difenacoum used are 2.6 mg of cis-difenacoum or trans-difenacoum per kilogram of rat. The dose of 2.6 mg of cis-difenacoum and trans-difenacoum per kilogram of rat corresponds to 4 times the median lethal dose (LD50) of difenacoum for rats. The dose of 5.2 mg of cis-difenacoum or trans-difenacoum per kilogram of rat corresponds to 8 times the median lethal dose (LD50) of difenacoum for rats.\n3 ml blood samples are taken from the rats anaesthetised with isoflurane in sample tubes containing citrate (3.2%). The tubes are centrifuged at 2,000 g for 10 minutes and the plasma fraction is collected.\nThe coagulation time (Quick time) of the plasma is analysed by means of the “Neoplastine CI Determination of Prothrombin Time” kit (Diagnostica Stago, Asnière, France) by measurement on a Thrombotimer option 2 plus (Behnk Electronik, Norderstedt, Germany).\nThe normal value for the coagulation time of untreated rats is 10 to 20 seconds."}, "[5]": {"target": "T1, recombinant enzyme rVKORC1 (Rattus norvegicus, UniProt Q6TEK4)", "T1 sequence (Q6TEK4 1-161)": "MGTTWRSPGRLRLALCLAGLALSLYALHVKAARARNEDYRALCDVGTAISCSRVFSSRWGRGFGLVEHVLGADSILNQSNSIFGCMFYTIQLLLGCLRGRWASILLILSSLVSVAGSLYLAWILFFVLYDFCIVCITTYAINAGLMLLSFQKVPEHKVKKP", "test": "Inhibition constant of the recombinant enzyme rVKORC1", "type": "biochemical", "experimental": "In addition, the value of the inhibition constant (Kicis=60 nM) of the recombinant enzyme rVKORC1 by cis-difenacoum is similar to the value of the inhibition constant of rVKORC1 by trans-difenacoum (Kitrans=30 nM)."}, "[6]": {"test_system": "female Sprague Dawley rats", "test": "in vivo", "type": "in vivo, rat", "experimental": "(§2) Counting from D0 and for three days (D0, D+1 and D+2), trans-difenacoum in an amount of 0.3 mg/kg; 0.6 mg/kg; 0.75 mg/kg; 1.2 mg/kg or 2.6 mg/kg (mg of trans-difenacoum per kilogram of female rat) is administered to female “Sprague Dawley” rats in an amount of one dose per day. On D+4, the coagulation time of these female rats is measured and the concentration of trans-difenacoum in the liver (expressed in μg of difenacoum per g of liver) of these female rats is analysed. The administration for three days (D0, D+1 and D+2) in an amount of a dose of trans-difenacoum greater than 0.3 mg/kg/day to female rats achieves at D+4 a high value of the coagulation time (greater than or equal to 500 seconds) in these female rats and a moderate hepatic persistence of less than 10 μg of trans-difenacoum per gram of liver for a dose of less than 2.6 mg/kg."}, "[7]": {"test": "in vivo", "type": "in vivo, rat", "details": "Sprague Dawley, liver, oral, female rats", "experimental": "as §2"}, "[8]": {"test": "in vivo", "type": "in vivo, rat", "details": "Sprague Dawley, rat, liver, oral; male rats, one dose per day on D0, D+1, D+2; D+3 (day following the last dose); read-out: hepatic persistence (concentration in the liver)", "experimental": "(§3) Counting from D0 and for three days (D0, D+1 and D+2), trans-difenacoum in an amount of 0.6 mg/kg, 1.2 mg/kg or 2.6 mg/kg (mg of trans-difenacoum per kilogram of male rat) is administered daily to “Sprague Dawley” male rats weighing between 180 and 220 g. On D+3, the coagulation time of these male rats is measured and the concentration of trans-difenacoum in the liver of these male rats (expressed in μg of trans-difenacoum per g of liver) is analysed."}, "[9]": {"test_system": "Sprague Dawley male rats", "test": "in vivo", "type": "in vivo, rat", "experimental": "as §3"}, "[10]": {"details": "2.6 mg/kg per os on D0, D+1, untreated 10 to 20 seconds"}},
  "note": "Read-outs that look alike come from different tables or passages of the source.",
  "data": [
    {"compound": "O=c1oc2ccccc2c(O)c1C1CC(c2ccc(-c3ccccc3)cc2)Cc2ccccc21", "note": "(stereo not drawn) [cis-difenacoum, 3-(biphenyl-4-yl)-1-(4-hydroxycoumarin-3-yl)-1,2,3,4-tetrahydronaphthalene, reference compound]", "values": [
      {"measurement": "Hepatic content", "setting": "[1]; D + 1, listed as cis", "result": 16.82, "unit": "µg/g"},
      {"measurement": "Hepatic content", "setting": "[1]; D + 3, listed as cis", "result": 8.28, "unit": "µg/g"},
      {"measurement": "Hepatic content", "setting": "[1]; D + 5, listed as cis", "result": 4.86, "unit": "µg/g"},
      {"measurement": "Hepatic content", "setting": "[1]; D + 10, listed as cis", "result": 1.85, "unit": "µg/g"},
      {"measurement": "Hepatic content", "setting": "[1]; D + 21, listed as cis", "result": 1.41, "unit": "µg/g"},
      {"measurement": "concentration in the liver", "setting": "[2]; female rats", "result": "9.6 μg/g of liver"},
      {"measurement": "concentration in the liver", "setting": "[2]; male rats", "result": "7.3 μg/g of liver"},
      {"measurement": "hepatic concentration", "setting": "[3]", "result": 4, "unit": "µg/g"},
      {"measurement": "coagulation time (Quick time)", "setting": "[4]; [10]", "result": 62, "unit": "s"},
      {"measurement": "Ki", "setting": "[5]", "result": 60, "unit": "nM"}
    ]},
    {"compound": "O=c1oc2ccccc2c(O)c1C1CC(c2ccc(-c3ccccc3)cc2)Cc2ccccc21", "note": "(stereo not drawn) [trans-difenacoum, 3-(biphenyl-4-yl)-1-(4-hydroxycoumarin-3-yl)-1,2,3,4-tetrahydronaphthalene]", "values": [
      {"measurement": "Hepatic content", "setting": "[1]; D + 1", "result": 4.22, "unit": "µg/g"},
      {"measurement": "Hepatic content", "setting": "[1]; D + 3", "result": 1.05, "unit": "µg/g"},
      {"measurement": "Hepatic content", "setting": "[1]; D + 5", "result": 0.25, "unit": "µg/g"},
      {"measurement": "Hepatic content", "setting": "[1]; D + 10", "result": 0.1, "unit": "µg/g"},
      {"measurement": "Hepatic content", "setting": "[1]; D + 21", "result": 0.17, "unit": "µg/g"},
      {"measurement": "coagulability of the blood (increase in coagulation time)", "setting": "[6]; dosage of 0.6 mg/kg or higher, three daily doses", "result": "uncoagulable"},
      {"measurement": "coagulation time", "setting": "[6]; dose greater than 0.3 mg/kg/day on D0, D+1, D+2, D+4", "result": "greater than or equal to 500 seconds"},
      {"measurement": "concentration at 4 day", "setting": "[7]; 2.6 mg/kg per day, 2.6 mg per day and per kilogram of rat for 3 days, read-out: hepatic concentration", "result": "~12000", "unit": "ng/g"},
      {"measurement": "concentration at 4 day", "setting": "[7]; rat, three daily doses of less than 2.6 mg/kg, D+4, read-out: hepatic persistence", "result": "< 10000", "unit": "ng/g"},
      {"measurement": "concentration at 3 day", "setting": "[8]", "result": "~2000", "unit": "ng/g"},
      {"measurement": "amount contained in a rat corpse", "setting": "[9]; considering that the liver contains half the ingested trans-difenacoum", "result": "about 40 μg"},
      {"measurement": "coagulability of the blood (increase in Quick time)", "setting": "[9]; male rat, dosage of 1.2 mg/kg or higher, three daily doses", "result": "uncoagulable"},
      {"measurement": "global amount per liver", "setting": "[9]; male rat, liver mass taken as of the order of 10 g", "result": 20, "unit": "µg"},
      {"measurement": "Quick time", "setting": "[9]; male rats, 0.6, 1.2 or 2.6 mg/kg one dose per day on D0, D+1, D+2, D+3", "result": "massive increase"},
      {"measurement": "concentration in the liver, female rats in comparison with male rats", "setting": "[2]; D+3", "result": "greater in the female rats"},
      {"measurement": "concentration in the liver", "setting": "[2]; female rats", "result": "3.3 μg/g of liver"},
      {"measurement": "kinetics of the hepatic elimination, female rats versus male rats", "setting": "[2]; in particular during the first 3 days", "result": "slower in the female rats than in the male rats"},
      {"measurement": "concentration in the liver", "setting": "[2]; male rats", "result": "0.9 μg/g of liver"},
      {"measurement": "concentration at 1 day", "setting": "[3]; Sprague Dawley, rat, liver, oral, 5.2 mg/kg, D+1, read-out: hepatic concentration", "result": "~1000", "unit": "ng/g"},
      {"measurement": "hepatic concentration", "setting": "[3]", "result": "almost undetectable"},
      {"measurement": "coagulation time (Quick time)", "setting": "[4]; [10]", "result": 62, "unit": "s"},
      {"measurement": "coagulation time (Quick time)", "setting": "[4]; 5.2 mg/kg per os on D0, D+1", "result": 84, "unit": "s"},
      {"measurement": "Ki", "setting": "[5]", "result": 30, "unit": "nM"}
    ]}
  ]
}
